From patent publication US7868204B2, “Inhibitors of histone deacetylase” (MethylGene Inc., priority 2001, dated 2011)
Read-outs that look alike come from different tables or passages of the source. Values belong to the molecule of their own block, whether it stands above or below them.

Experiments:
HCT116 cells = test: MTT assay; assay type: cell-based; details: Homo sapiens, HCT116 cells, 72 hours
Procedure, shortened: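 Cells plated one day before dosing, then exposed to compound 72 h at 37 °C, 5% CO2. MTT at 0.5 mg/ml final for 4 h, solubilized in DMF/SDS buffer pH 4.7; OD converted to cell number from a standard growth curve.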

[1] = system: acetylated histone H-4 in T24 human bladder cancer cells; test: Histone H4 acetylation in whole cells by immunoblots; assay type: cell-based; details: 16 h
Procedure: T24 human bladder cancer cells growing in culture were incubated with HDAC inhibitors for 16 h. […] of total histone protein was loaded onto SDS/PAGE and transferred to nitrocellulose membranes. Membranes were probed with polyclonal antibodies specific for acetylated histone H-4 (Upstate Biotech Inc.), followed by horse radish peroxidase conjugated secondary antibodies (Sigma). Enhanced Chemiluminescence (ECL) (Amersham) detection was performed using Kodak films (Eastman Kodak). Acetylated H-4 signal was quantified by densitometry.

[2] = biological target: T1, cloned recombinant human HDAC-1 (Homo sapiens, UniProt Q13547); test: Human HDAC-1 enzyme inhibition, Assay 1 ([3H]-acetylated histone substrate, scintillation counting); assay type: biochemical
T1 construct: made in house; host or cells: Baculovirus insect cell expression system
Procedure, shortened: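 Recombinant human HDAC-1 from baculovirus-infected insect cells, preincubated with compound 30 min at 4° C. before reaction. Released [3H]-acetic acid extracted with ethyl acetate and counted by scintillation. IC50 taken from dose-response curves as concentration giving half-maximal inhibition.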

[3] = T-24, Table 5F, read-out: H4 Ac (T24) EC50
[4] = T-24, Table 5c, read-out: H4Ac (T24) EC50
[5] = Table 5F, read-out: Human HDAC-1 IC50
[6] = Table 5d, read-out: HDAC-1 IC50
[7] = Table 5c, read-out: Human HDAC-1 IC50
[8] = Table 5b, read-out: Human HDAC-1 IC50

T1 sequence (Q13547 whole entry): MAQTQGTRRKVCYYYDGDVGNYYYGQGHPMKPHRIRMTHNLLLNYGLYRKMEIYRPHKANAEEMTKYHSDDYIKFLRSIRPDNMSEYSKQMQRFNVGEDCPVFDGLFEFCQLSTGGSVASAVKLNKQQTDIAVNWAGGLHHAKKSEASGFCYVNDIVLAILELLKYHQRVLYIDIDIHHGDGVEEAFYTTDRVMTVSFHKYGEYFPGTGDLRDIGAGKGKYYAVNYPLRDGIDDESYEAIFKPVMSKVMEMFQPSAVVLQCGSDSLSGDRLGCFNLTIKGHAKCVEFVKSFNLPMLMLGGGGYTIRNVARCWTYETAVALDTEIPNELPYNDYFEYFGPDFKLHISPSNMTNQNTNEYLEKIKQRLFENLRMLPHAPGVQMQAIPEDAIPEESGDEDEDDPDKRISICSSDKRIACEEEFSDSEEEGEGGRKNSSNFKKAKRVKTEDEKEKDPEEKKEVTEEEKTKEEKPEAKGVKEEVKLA

IC50 (HCT116 cells; HCT-116, 72 h, Table 5F): 5 µM
EC50 [1, 3]: 5 µM
SMILES: COc1ccc(NCc2ccc(C(=O)Nc3ccccc3O)cc2)cc1OC [Cpd 572, N-(2-hydroxy-phenyl)-4-[(3,4-Dimethoxy-phenylamino)-methyl]-benzamide]

IC50 (HCT116 cells; HCT-116, 72 h, Table 5F): 0.4 µM
EC50 [1, 3]: 1 µM
SMILES: COc1ccc(NCc2ccc(C(=O)Nc3ccccc3N)cc2)cc1OC [Cpd 424b]

IC50 (HCT116 cells; HCT-116, 72 h, Table 5c): 7 µM
EC50 [1, 4]: 5 µM
SMILES: Nc1ccccc1NC(=O)/C=C/c1ccc(NCc2ccncc2)nc1 [Cpd 91]

IC50 (HCT116 cells; HCT-116, 72 h, Table 5c): 1 µM
EC50 [1, 4]: 5 µM
SMILES: Nc1ccccc1NC(=O)/C=C/c1ccc(NCc2ccccc2)nc1 [Cpd 93, N-(2-aminophenyl)-3-(6-benzylamino-pyridin-3-yl)-acrylamide]

IC50 (HCT116 cells; HCT-116, 72 h, Table 5c): 2 µM
EC50 [1, 4]: 3 µM
SMILES: Nc1ccccc1NC(=O)/C=C/c1ccc(NCc2ccc(F)cc2)nc1 [Cpd 92, N-(2-aminophenyl)-3-[6-(4-fluoro-benzylamino)-pyridin-3-yl]-acrylamide]

IC50 [2, 5]: 4 µM
IC50 (HCT116 cells; HCT-116, 72 h, Table 5F): 11 µM
SMILES: Cc1ccc(Sc2ccc(C(=O)Nc3ccccc3N)cn2)cc1 [Cpd 464, N-(2-Amino-phenyl)-6-p-tolylsulfanyl-nicotinamide]

IC50 [2, 5]: 11 µM
IC50 (HCT116 cells; HCT-116, 72 h, Table 5F): 5 µM
SMILES: Nc1ccccc1NC(=O)c1ccc(C#CC(c2ccc(Cl)cc2)N2CCOCC2)cc1 (stereo not shown) [Cpd 201]

IC50 [2, 6]: > 25 µM
IC50 (HCT116 cells; HCT-116, Table 5d): > 25 µM
SMILES: COc1cc(NCc2ccc(/C=C/C(=O)Nc3cccc(O)c3N)cc2)cc(OC)c1OC [Cpd 561]

IC50 [2, 6]: 23 µM
IC50 (HCT116 cells; HCT-116, Table 5d): 37 µM
SMILES: COc1cc(SCc2ccc(/C=C/C(=O)Nc3ccccc3N)cc2)cc(OC)c1OC [Cpd 500, N-(2-Amino-phenyl)-3-[4-(3,4,5-trimethoxy-phenylsulfanylmethyl)-phenyl]-acrylamide]

IC50 [2, 6]: 4 µM
IC50 (HCT116 cells; HCT-116, Table 5d): 12 µM
SMILES: Nc1ccccc1NC(=O)/C=C/c1ccc(CNc2cccc(Cl)c2)cc1 [Cpd 553, N-(2-Amino-phenyl)-3-{4-[(3-chloro-phenylamino)-methyl]-phenyl}-acrylamide]

IC50 [2, 7]: 10 µM
IC50 (HCT116 cells; HCT-116, 72 h, Table 5c): 12 µM
SMILES: Nc1ccccc1NC(=O)/C=C/c1ccc(NCCCn2ccnc2)nc1 [Cpd 97, N-(2-aminophenyl)-3-[6-(3-imidazol-1-yl-propylamino)-pyridin-3-yl]-acrylamide]

IC50 [2, 5]: 16 µM
IC50 (HCT116 cells; HCT-116, 72 h, Table 5F): 9 µM
SMILES: Nc1ccccc1NC(=O)c1ccc(-c2noc(-c3ccccc3)n2)cc1 [Cpd 352, N-(2-Amino-phenyl)-4-(5-phenyl-[1,2,4]oxadiazol-3-yl)-benzamide]

IC50 [2, 6]: 5 µM
IC50 (HCT116 cells; HCT-116, Table 5d): 17 µM
SMILES: CSc1ccc(NCc2ccc(/C=C/C(=O)Nc3ccccc3N)cc2)cc1F [Cpd 565, N-(2-Amino-phenyl)-3-{4-[(3-fluoro4-methylsulfanyl-phenylamino)-methyl]-phenyl}-acrylamide]

IC50 ([2]; Table 5a, read-out: Human HDAC-1 IC50): 0.4 µM
IC50 (HCT116 cells; HCT-116, 72 h, Table 5a): 2 µM
SMILES: Nc1ccccc1NC(=O)c1ccc(CNc2nc(NCCc3ccccc3)nc(NC3Cc4ccccc4C3)n2)cc1 [Cpd 27]

IC50 [2, 5]: 5 µM
IC50 (HCT116 cells; HCT-116, 72 h, Table 5F): 2 µM
SMILES: Cc1cc(C)n(-c2ccc(C(=O)Nc3ccccc3N)cc2)n1 [compound 286, N-(2-Amino-phenyl)-4-(3,5-dimethyl-pyrazol-1-yl)-benzamide]

IC50 [2, 5]: 1 µM
IC50 (HCT116 cells; HCT-116, 72 h, Table 5F): 6 µM
SMILES: Nc1ccccc1NC(=O)c1ccc(CNc2ccc3[nH]c(=O)[nH]c3c2)cc1 [Cpd 449, N-(2-Amino-phenyl)-4-[(2-oxo-2,3-dihydro-1H-benzoimidazol-5-ylamino)-methyl]-benzamide]

IC50 [2, 8]: 5 µM
IC50 (HCT116 cells; HCT-116, 72 h, Table 5b): 3 µM
SMILES: Nc1nc(CCc2ccc(C(=O)Nc3ccccc3N)cc2)nc(N2CCCCC2)n1 [Cpd 224]

IC50 [2, 6]: 24 µM
IC50 (HCT116 cells; HCT-116, Table 5d): 6 µM
SMILES: COc1ccc(NCc2ccc(/C=C/C(=O)Nc3ccccc3N)cc2)cc1CNc1cc(OC)c(OC)c(OC)c1 [Cpd 563, N-(2-Amino-phenyl)-3-[4-([4-methoxy-3-[(3,4,5-trimethoxy-phenylamino)-methyl]-phenylamino}-methyl)-phenyl]-acrylamide]

IC50 [2, 5]: 12 µM
IC50 (HCT116 cells; HCT-116, 72 h, Table 5F): 6 µM
SMILES: Nc1ccccc1NC(=O)c1ccc(C#CC2(O)CCCCC2)nc1 [Cpd 463, N-(2-Amino-phenyl)-6-(1-hydroxy-cyclohexylethynyl)-nicotinamide]

IC50 [2, 7]: 25 µM
IC50 (HCT116 cells; HCT-116, 72 h, Table 5c): 0.5 µM
SMILES: COc1ccc(C(=O)Nc2ccc(/C=C/C(=O)Nc3ccccc3N)cn2)cc1 [Cpd 114]

IC50 [2, 7]: 16 µM
IC50 (HCT116 cells; HCT-116, 72 h, Table 5c): 21 µM
SMILES: COc1ccc(C(=O)Nc2ccc(/C=C/C(=O)Nc3ccccc3N)cc2)cc1 [Cpd 72, N-(4-[2-(2-Amino-phenylcarbamoyl)-vinyl]-phenyl}-4-methoxy-benzamide]

IC50 [2, 5]: 17 µM
IC50 (HCT116 cells; HCT-116, 72 h, Table 5F): 10 µM
SMILES: Nc1ccccc1NC(=O)c1ccc(CN2CCOCC2)cc1 [Cpd 328]

IC50 [2, 6]: 5 µM
IC50 (HCT116 cells; HCT-116, Table 5d): 5 µM
SMILES: COc1ccc(NCc2ccc(/C=C/C(=O)Nc3ccccc3N)cc2)c(OC)c1OC [Cpd 562, N-(2-Amino-phenyl)-3-[4-[(2,3,4-trimethoxy-phenylamino)-methyl]-phenyl}-acrylamide]

IC50 [2, 6]: 18 µM
IC50 (HCT116 cells; HCT-116, Table 5d): 6 µM
SMILES: COc1ccc(-c2ccc(/C=C/C(=O)Nc3ccccc3N)cn2)cc1OC [Cpd 569]

IC50 [2, 8]: 0.4 µM
IC50 (HCT116 cells; HCT-116, 72 h, Table 5b): 0.6 µM
SMILES: COc1cccc(CCNc2nc(NCc3ccc(C(=O)Nc4ccccc4N)cc3)nc(NC3CC3)n2)c1 [Cpd 479]

IC50 [2, 6]: 20 µM
IC50 (HCT116 cells; HCT-116, Table 5d): 12 µM
SMILES: COc1cc(/C=C/C(=O)Nc2ccccc2N)ccc1CNc1cc(OC)c(OC)c(OC)c1 [Cpd 484]

IC50 [2, 8]: 1 µM
IC50 (HCT116 cells; HCT-116, 72 h, Table 5b): 0.7 µM
SMILES: Nc1ccccc1NC(=O)c1ccc(CNc2nc(NCCc3cccc(Cl)c3)nc(NC3CC3)n2)cc1 [Cpd 477]

IC50 [2, 6]: 4 µM
IC50 (HCT116 cells; HCT-116, Table 5d): 15 µM
SMILES: Nc1ccccc1NC(=O)/C=C/c1ccc(CNc2ccc([N+](=O)[O-])cc2)cc1 [Cpd 550, N-(2-Amino-phenyl)-3-{4-[(4-nitro-phenylamino)-methyl]-phenyl}-acrylamide]

IC50 [2, 6]: 3 µM
IC50 (HCT116 cells; HCT-116, Table 5d): 5 µM
SMILES: N#Cc1cccc(NCc2ccc(C=CC(=O)Nc3ccccc3N)cc2)c1 [Cpd 532]

IC50 [2, 5]: 16 µM
IC50 (HCT116 cells; HCT-116, 72 h, Table 5F): 6 µM
SMILES: COc1cc(NCc2ccc(C(=O)Nc3ccccc3N)cn2)cc(OC)c1OC [Cpd 445, N-(2-Amino-phenyl)-6-[(3,4,5-trimethoxy-phenylamino)-methyl]-nicotinamide]

IC50 [2, 6]: 8 µM
IC50 (HCT116 cells; HCT-116, Table 5d): 13 µM
SMILES: Nc1ccccc1NC(=O)/C=C/c1ccc(NCc2cccc(OC(F)(F)F)c2)cc1 [Cpd 496, N-(2-Amino-phenyl)-3-[4-(3-trifluoromethoxy-benzylamino)-phenyl]-acrylamide]

IC50 [2, 6]: 15 µM
IC50 (HCT116 cells; HCT-116, Table 5d): 11 µM
SMILES: Nc1ccccc1NC(=O)/C=C/c1ccc(CNc2cccc(OC(F)(F)F)c2)cc1 [Cpd 506, N-(2-Amino-phenyl)-3-{4-[(3-trifluoromethoxy-phenylamino)-methyl]-phenyl}-acrylamide]

IC50 [2, 6]: 17 µM
IC50 (HCT116 cells; HCT-116, Table 5d): 45 µM
SMILES: Nc1ccccc1NC(=O)/C=C/c1ccc(CNc2ccc(Cc3nnn[nH]3)cc2)cc1 [Cpd 544, N-(2-Amino-phenyl)-3-(4-{[4-(1H-tetrazol-5-ylmethyl)-phenylamino]-methyl}-phenyl)-acrylamide]

IC50 ([2]; Table 5E, read-out: Human HDAC-1 IC50): 0.3 µM
IC50 (HCT116 cells; HCT-116, 72 h, Table 5E): 11 µM
SMILES: Nc1ccccc1NC(=O)c1ccc(CCN2C(=O)c3ccccc3C2=O)cc1 [Cpd 152, N-(2-Amino-phenyl)-4-[2-(1,3-dioxo-1,3-dihydro-isoindol-2-yl)-ethyl]-benzamide]

IC50 [2, 6]: > 25 µM
IC50 (HCT116 cells; HCT-116, Table 5d): 39 µM
SMILES: COc1cc(NCc2ccc(/C=C/C(=O)Nc3ccccc3N)cc2N)cc(OC)c1OC [Cpd 568]
